From patent publication US12692269B2, “Therapeutic compounds” (Genentech, Inc., priority 2019, dated 2026)

Legend:
Format in all cases: binding
TEAD1 YAP50-100 = TEAD1 YAP50-100 (Homo sapiens, UniProt P28347); experiment: TEAD1-YAP HTRF (TR-FRET) protein-protein interaction assay; conditions: TEAD1, YAP peptide 50-100, HTRF; for EC50: read-out: TEAD1 YAP50-100 HTRF combined: EC50
Experimental: (§1) Purified His-tagged TEAD protein (YAP Binding Domain, amino acids 217-447) is pre-incubated with Europium labelled anti-His antibody tracer (Perkin Elmer Cat #AD0110). Small molecule Inhibitors are then incubated with the TEAD-Eu protein complex for 30 minutes to allow for binding to TEAD protein. Biotinylated YAP peptide for TEAD-YAP assays (AA's 50-100) or biotinylated TAZ peptide for TEAD-TAZ assays (AA's 13-57) that has been pre-incubated with streptavidin-xl665 acceptor (CIS-Bio Cat #610SAXAC) or is added to the compound-TEAD mix. The TEAD-YAP-inhibitor mixture is then incubated for 60 minutes at room temperature. All reactions are carried out in a polystyrene plate. After 60 minutes, the plate is read on a plate reader using TR-FRET mode with wavelengths of 665 nm/615 nm. If YAP or TAZ binds to TEAD as expected, a TR-FRET signal results from the proximity of YAP or TAZ and TEAD after binding. If an inhibitor such as peptide 17 (Selleckchem Cat #58164) interferes with YAP-TEAD or TAZ-TEAD binding, the disruption of the YAP or TAZ:TEAD interaction results in a decrease in TR-FRET signal. The potency of compounds as YAP:TEAD or TAZ:TEAD protein-protein interaction (PPi) inhibitors is determined by an IC50 or EC50 value generated using a non-linear four parameter curve fit.

TEAD2 YAP50-100 = TEAD2 YAP50-100 (Homo sapiens, UniProt Q15562); experiment: TEAD2-YAP HTRF (TR-FRET) protein-protein interaction assay; conditions: TEAD2, YAP peptide 50-100, HTRF; for EC50: read-out: TEAD2 YAP50-100 HTRF combined: EC50
Experimental: as §1

TEAD3 YAP50-100 = TEAD3 YAP50-100 (Homo sapiens, UniProt Q99594); experiment: TEAD3-YAP HTRF (TR-FRET) protein-protein interaction assay; conditions: TEAD3, YAP peptide 50-100, HTRF; for EC50: read-out: TEAD3 YAP50-100 HTRF combined: EC50
Experimental: as §1

TEAD4 YAP50-100 = TEAD4 YAP50-100 (Homo sapiens, UniProt Q15561); experiment: TEAD4-YAP HTRF (TR-FRET) protein-protein interaction assay; conditions: TEAD4, YAP peptide 50-100, HTRF; for EC50: read-out: TEAD4 YAP50-100 HTRF combined: EC50
Experimental: as §1

[1] = biological target: TEAD1 TAZ (amino acids 13-57) (Homo sapiens, UniProt P28347); experiment: TEAD1-TAZ HTRF (TR-FRET) protein-protein interaction assay; conditions: for TEAD1 TAZ HTRF combined: Max % Inhibition: TEAD1, TAZ peptide; for EC50: TEAD1-TAZ HTRF, TR-FRET 665 nm/615 nm, read-out: TEAD1 TAZ HTRF combined: EC50
Experimental: as §1

[2] = biological target: TEAD2 TAZ (amino acids 13-57) (Homo sapiens, UniProt Q15562); experiment: TEAD2-TAZ HTRF (TR-FRET) protein-protein interaction assay; conditions: for TEAD2 TAZ HTRF combined: Max % Inhibition: TEAD2, TAZ peptide; for EC50: TEAD2-TAZ HTRF, TR-FRET 665 nm/615 nm, read-out: TEAD2 TAZ HTRF combined: EC50
Experimental: as §1

[3] = biological target: TEAD3 TAZ (amino acids 13-57) (Homo sapiens, UniProt Q99594); experiment: TEAD3-TAZ HTRF (TR-FRET) protein-protein interaction assay; conditions: for TEAD3 TAZ HTRF combined: Max % Inhibition: TEAD3, TAZ peptide; for EC50: TEAD3-TAZ HTRF, TR-FRET 665 nm/615 nm, read-out: TEAD3 TAZ HTRF combined: EC50
Experimental: as §1

[4] = biological target: TEAD4 TAZ (amino acids 13-57) (Homo sapiens, UniProt Q15561); experiment: TEAD4-TAZ HTRF (TR-FRET) protein-protein interaction assay; conditions: for TEAD4 TAZ HTRF combined: Max % Inhibition: TEAD4, TAZ peptide; for EC50: TEAD4-TAZ HTRF, TR-FRET 665 nm/615 nm, read-out: TEAD4 TAZ HTRF combined: EC50
Experimental: as §1

TEAD3 YAP50-100, sequence (Q99594 173-435 limits assumed): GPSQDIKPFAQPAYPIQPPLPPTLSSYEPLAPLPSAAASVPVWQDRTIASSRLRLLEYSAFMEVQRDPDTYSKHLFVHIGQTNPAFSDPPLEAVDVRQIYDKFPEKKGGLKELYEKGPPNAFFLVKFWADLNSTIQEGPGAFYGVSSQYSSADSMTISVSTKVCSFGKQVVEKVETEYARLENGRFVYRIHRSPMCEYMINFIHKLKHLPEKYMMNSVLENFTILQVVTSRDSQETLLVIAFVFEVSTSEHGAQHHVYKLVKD
TEAD3 TAZ (amino acids 13-57), sequence (Q99594 173-435 limits assumed): as above
TEAD1 YAP50-100, sequence (P28347 167-426 limits assumed): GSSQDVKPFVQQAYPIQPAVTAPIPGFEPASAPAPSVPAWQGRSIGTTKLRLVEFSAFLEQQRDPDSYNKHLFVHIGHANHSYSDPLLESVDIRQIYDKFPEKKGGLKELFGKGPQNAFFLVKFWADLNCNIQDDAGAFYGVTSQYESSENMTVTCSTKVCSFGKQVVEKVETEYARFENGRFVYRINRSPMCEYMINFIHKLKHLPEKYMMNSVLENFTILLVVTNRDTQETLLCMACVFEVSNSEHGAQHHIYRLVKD
TEAD1 TAZ (amino acids 13-57), sequence (P28347 167-426 limits assumed): as above
TEAD4 YAP50-100, sequence (Q15561 217-434 limits assumed): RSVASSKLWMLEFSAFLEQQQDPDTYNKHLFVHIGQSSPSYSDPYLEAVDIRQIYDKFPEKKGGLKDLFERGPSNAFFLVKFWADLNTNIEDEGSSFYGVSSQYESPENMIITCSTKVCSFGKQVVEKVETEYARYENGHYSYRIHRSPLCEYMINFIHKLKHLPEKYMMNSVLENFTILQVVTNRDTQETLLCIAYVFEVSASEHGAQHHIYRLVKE
TEAD4 TAZ (amino acids 13-57), sequence (Q15561 217-434 limits assumed): as above
TEAD2 TAZ (amino acids 13-57), sequence (Q15562 217-447): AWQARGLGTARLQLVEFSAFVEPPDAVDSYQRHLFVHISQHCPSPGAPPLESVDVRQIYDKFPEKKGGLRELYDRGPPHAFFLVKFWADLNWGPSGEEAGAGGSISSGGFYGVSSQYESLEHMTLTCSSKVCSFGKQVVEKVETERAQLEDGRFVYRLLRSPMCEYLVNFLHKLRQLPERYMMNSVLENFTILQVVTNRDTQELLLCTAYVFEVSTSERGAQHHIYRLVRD
TEAD2 YAP50-100, sequence (Q15562 217-447): as above

SMILES	TEAD1 YAP50-100 HTRF combined: Max % Inhibition (TEAD1 YAP50-100)	EC50 (TEAD1 YAP50-100)	TEAD2 YAP50-100 HTRF combined: Max % Inhibition (TEAD2 YAP50-100)	EC50 (TEAD2 YAP50-100)	TEAD3 YAP50-100 HTRF combined: Max % Inhibition (TEAD3 YAP50-100)	EC50 (TEAD3 YAP50-100)	TEAD4 YAP50-100 HTRF combined: Max % Inhibition (TEAD4 YAP50-100)	EC50 (TEAD4 YAP50-100)	TEAD1 TAZ HTRF combined: Max % Inhibition [1]	EC50 [1]	TEAD2 TAZ HTRF combined: Max % Inhibition [2]	EC50 [2]	TEAD3 TAZ HTRF combined: Max % Inhibition [3]	EC50 [3]	TEAD4 TAZ HTRF combined: Max % Inhibition [4]	EC50 [4]
C[C@H]1[C@@H](CF)CN1C(=O)c1c(-c2ncccn2)nn2c(=O)cc(-c3ccc(C4CCCCC4)cc3)[nH]c12 (single isomer, unassigned) [Isomer B, Example 40]	76.0%	130 nM	68.0%	80 nM	68.0%	440 nM	49.5%	2000 nM	70.0%	140 nM	78.5%	120 nM	70.0%	530 nM	51.0%	2100 nM
Cc1nccnc1-c1nn2c(=O)cc(-c3ccc(C4CCCCC4)cc3)[nH]c2c1C(=O)N1C[C@H](CF)[C@@H]1C (single isomer, unassigned) [Isomer B, Example 41]	80.0%	80 nM	77.8%	20 nM	80.2%	120 nM	57.2%	30 nM	71.0%	70 nM	74.4%	20 nM	73.8%	140 nM	57.0%	30 nM
Cc1nccnc1-c1nn2c(=O)cc(-c3ccc(CC4CCCC4)cc3)[nH]c2c1C(=O)N1C[C@H](CF)[C@@H]1C (single isomer, unassigned) [Isomer B, Example 42]	68.0%	40 nM	68.0%	10 nM	68.0%	80 nM	52.5%	20 nM	59.0%	60 nM	62.0%	10 nM	60.0%	90 nM	48.5%	20 nM
C[C@@H]1[C@H](CF)CN1C(=O)c1c(-c2ncccn2)nn2c(=O)cc(-c3ccc(CC4CCCC4)cc3)[nH]c12 (single isomer, unassigned) [Isomer B, Example 43]	65.0%	50 nM	73.0%	20 nM	66.0%	140 nM	51.0%	370 nM	60.0%	50 nM	71.5%	20 nM	65.5%	150 nM	50.0%	270 nM
C[C@H]1[C@@H](CF)CN1C(=O)c1c(-c2cnccn2)nn2c(=O)cc(-c3ccc(CC4CCCC4)cc3)[nH]c12 (single isomer, unassigned) [Isomer B, Example 44, Cis-5-(4-(cyclopentylmethyl)phenyl)-3-(3-(fluoromethyl)-2-methylazetidine-1-carbonyl)-2-(pyrazin-2-yl)pyrazolo[1,5-a]pyrimidin-7(4H)-one]	69.0%	30 nM	70.0%	10 nM	61.5%	50 nM	50.5%	20 nM	59.5%	40 nM	67.5%	10 nM	56.0%	50 nM	52.0%	20 nM
CN(C)C(=O)c1nn2c(=O)cc(-c3ccc(C4CCCCC4)cc3)[nH]c2c1C(=O)N1CC(CF)C1 [Compound 1, 5-(4-Cyclohexylphenyl)-3-(3-(fluoromethyl)azetidine-1-carbonyl)-N,N-dimethyl-7-oxo-4,7-dihydropyrazolo[1,5-a]pyrimidine-2-carboxamide]	70.0%	90 nM	74.4%	10 nM	75.3%	110 nM	55.3%	330 nM	61.2%	90 nM	69.2%	10 nM	63.0%	170 nM	40.3%	600 nM
CN(C)C(=O)c1nn2c(=O)cc(-c3ccc(CC4CCCC4)cc3)[nH]c2c1C(=O)N1CC(CF)C1 [Compound 2, 5-(4-(Cyclopentylmethyl)phenyl)-3-(3-(fluoromethyl)azetidine-1-carbonyl)-N,N-dimethyl-7-oxo-4,7-dihydropyrazolo[1,5-a]pyrimidine-2-carboxamide]	62.0%	60 nM	68.0%	10 nM	60.5%	120 nM	51.5%	470 nM	47.0%	70 nM	66.5%	10 nM	44.0%	120 nM	42.0%	330 nM
CN(C)C(=O)c1nn2c(=O)cc(-c3cc(F)c(C4CCCCC4)c(F)c3)[nH]c2c1C(=O)N1CC(CF)C1 [Compound 3, 5-(4-Cyclohexyl-3,5-difluorophenyl)-3-(3-(fluoromethyl)azetidine-1-carbonyl)-N,N-dimethyl-7-oxo-4,7-dihydropyrazolo[1,5-a]pyrimidine-2-carboxamide]	55.0%	60 nM	56.5%	10 nM	66.5%	230 nM	39.5%	210 nM	44.0%	90 nM	55.0%	10 nM	44.0%	190 nM	29.0%	170 nM
